Measured values published in US20220204439A1, “LIPIDS AND LIPID NANOPARTICLE FORMULATIONS FOR DELIVERY OF NUCLEIC ACIDS” (Acuitas Therapeutics, Inc., priority 2015, published 2022).

Assays:
[1] = pKa of formulated cationic lipids in lipid nanoparticles (TNS fluorescence assay); format: physicochemical; settings: probe 2-(p-toluidino)-6-napthalene sulfonic acid (TNS), 1 µM final; formulated in LNP cationic lipid/DSPC/cholesterol/PEG-lipid 50/10/38.5/1.5 mol %; pH of half-maximal TNS fluorescence
Experimental: As described elsewhere, the pKa of formulated cationic lipids is correlated with the effectiveness of LNPs for delivery of nucleic acids (see Jayaraman et al, Angewandte Chemie, International Edition (2012), 51(34), 8529-8533; Semple et al, Nature Biotechnology 28, 172-176 (2010)). The preferred range of pKa is ˜5 to ˜7. […] Lipid nanoparticles comprising of cationic lipid/DSPC/cholesterol/PEG-lipid (50/10/38.5/1.5 mol %) in PBS at a concentration of 0.4 mM total lipid are prepared using the in-line process as described in Example 28. TNS was prepared as a 100 μM stock solution in distilled water. Vesicles were diluted to 24 μM lipid in 2 mL of buffered solutions containing, 10 mM HEPES, 10 mM MES, 10 mM ammonium acetate, 130 mM NaCl, where the pH ranged from 2.5 to 11. An aliquot of the TNS solution was added to give a final concentration of 1 μM and following vortex mixing fluorescence intensity was measured at room temperature in a SLM Aminco Series 2 Luminescence Spectrophotometer using excitation and emission wavelengths of 321 nm and 445 nm. A sigmoidal best fit analysis was applied to the fluorescence data and the pKa was measured as the pH giving rise to half-maximal fluorescence intensity (see FIG. 2).

[2] = tested on: luciferase expression in the liver; test: In vivo luciferase mRNA expression in mouse liver with lipid nanoparticle formulations; design: species or system C57BL/6 mice; settings: tail vein injection, liver 4 hours after administration, FLuc mRNA; for Liver Luc @ 0.3 mg/kg (ng luc/g liver) / Liver Luc @ 1.0 mg/kg (ng luc/g liver): LNP 50% cationic lipid/10% DSPC/38.5% cholesterol/1.5% PEG-DMA
Experimental: (§1) Cationic lipid (MC3), DSPC, cholesterol and PEG-lipid were solubilized in ethanol at a molar ratio of 50:10:38.5:1.5. Lipid nanoparticles (LNP) were prepared at a total lipid to mRNA weight ratio of approximately 10:1 to 30:1. Briefly, the mRNA was diluted to 0.2 mg/mL in 10 to 50 mM citrate buffer, pH 4. Syringe pumps were used to mix the ethanolic lipid solution with the mRNA aqueous solution at a ratio of about 1:5 to 1:3 (vol/vol) with total flow rates above 15 ml/min. The ethanol was then removed and the external buffer replaced with PBS by dialysis. Finally, the lipid nanoparticles were filtered through a 0.2 μm pore sterile filter. Lipid nanoparticle particle size was 70-90 nm diameter as determined by quasi-elastic light scattering using a Nicomp 370 submicron particle sizer (Santa Barbara, Calif.).
Studies were performed in 6-8 week old female C57BL/6 mice (Charles River) according to guidelines established by an institutional animal care committee (ACC) and the Canadian Council on Animal Care (CCAC). Varying doses of mRNA-lipid nanoparticle were systemically administered by tail vein injection and animals euthanized at specific time points (1, 2, 4, 8 and 24 hrs) post-administration. Liver and spleen were collected in pre-weighted tubes, weights determined, immediately snap frozen in liquid nitrogen and stored at −80° C. until processing for analysis.
For liver, approximately 50 mg was dissected for analyses in a 2 mL FastPrep tubes (MP Biomedicals, Solon Ohio). ¼″ ceramic sphere (MP Biomedicals) was added to each tube and 500 μL of Glo Lysis Buffer—GLB (Promega, Madison Wis.) equilibrated to room temperature was added to liver tissue. Liver tissues were homogenized with the FastPrep24 instrument (MP Biomedicals) at 2×6.0 m/s for 15 seconds. Homogenate was incubated at room temperature for 5 minutes prior to a 1:4 dilution in GLB and assessed using SteadyGlo Luciferase assay system (Promega). Specifically, 50 μL of diluted tissue homogenate was reacted with 50 μL of SteadyGlo substrate, shaken for 10 seconds followed by 5 minute incubation and then quantitated using a CentroXS^3 LB 960 luminometer (Berthold Technologies, Germany). The amount of protein assayed was determined by using the BCA protein assay kit (Pierce, Rockford Ill.). Relative luminescence units (RLU) were then normalized to total ug protein assayed. To convert RLU to ng luciferase a standard curve was generated with QuantiLum Recombinant Luciferase (Promega). Based in the data provided in FIG. 1, the four-hour time point was chosen for efficacy evaluation of the lipid formulations (see Example 29).
The FLuc mRNA (L-6107) from Trilink Biotechnologies will express a luciferase protein, originally isolated from the firefly, Photinus pyralis. FLuc is commonly used in mammalian cell culture to measure both gene expression and cell viability. It emits bioluminescence in the presence of the substrate, luciferin. This capped and polyadenylated mRNA is fully substituted with 5-methylcytidine and pseudouridine.
The cationic lipids shown in Table 2 have previously been tested with nucleic acids. For comparative purposes, these lipids were also used to formulate lipid nanoparticles containing the FLuc mRNA (L-6107) using an in line mixing method, as described in example 28 and in PCT/US10/22614, which is hereby incorporated by reference in its entirety. […] Relative activity was determined by measuring luciferase expression in the liver 4 hours following administration via tail vein injection as described in example 28. The activity was compared at a dose of 0.3 and 1.0 mg mRNA/kg and expressed as ng luciferase/g liver measured 4 hours after administration, as described in Example 28. […]

[3] = Lipid nanoparticle particle size by quasi-elastic light scattering; format: physicochemical; settings: MC3/DSPC/cholesterol/PEG-lipid 50:10:38.5:1.5 LNP with mRNA, Nicomp 370
Experimental: as §1

Compound | pKa [1] | Liver Luc @ 0.3 mg/kg (ng luc/g liver) ([2]; 0.3 mg mRNA/kg) | Liver Luc @ 1.0 mg/kg (ng luc/g liver) ([2]; 1.0 mg mRNA/kg) | Liver Luc @ 0.3 mg/kg dose ([2]; 0.3 mg mRNA/kg, LNP 50% cationic lipid/10% DSPC/38.5% cholesterol/1.5% PEG-DMG) [ng luciferase/g liver] | Liver Luc @ 1.0 mg/kg dose ([2]; 1.0 mg mRNA/kg, LNP 50% cationic lipid/10% DSPC/38.5% cholesterol/1.5% PEG-DMG) [ng luciferase/g liver] | Lipid nanoparticle particle size (diameter) [3]
CCCCCCCCC(=O)N(CCCN1CCCC1)C(CCCCCCCCC(=O)OCC(CCCC)CCCCCC)CCCCCCCCC(=O)OCC(CCCC)CCCCCC (centres unmarked) [Compound 15] | 6.32 | 2708 ± 924 | 15930 ± 4711 |  |  | 
CCCCCCCCC(=O)N(CCCN(C)C)C(CCCCCCCCC(=O)OCC(CCCCCC)CCCCCCCC)CCCCCCCCC(=O)OCC(CCCCCC)CCCCCCCC (centres unmarked) [Compound 13] | 6.22 | 1537 ± 777 | 10907 ± 2032 |  |  | 
CCCCCC(CCCC)OC(=O)CCCCCCCC(=O)N(CCCN(C)C)C(CCCCCCCCC(=O)OC(CCCC)CCCC)CCCCCCCCC(=O)OC(CCCC)CCCC (centres unmarked) [Compound 24] | 6.14 | 1120 ± 376 | 7425 ± 2810 |  |  | 
CCCCCCCCC(=O)N(CCCN(C)C)C(CCCCCC(=O)OCC(CCCCCC)CCCCCCCC)CCCCCC(=O)OCC(CCCCCC)CCCCCCCC (centres unmarked) [Compound 38] | 6.45 | 905 ± 443 | 5353 ± 2082 |  |  | 
CCCCC/C=C\C/C=C\CCCCCCCCC(CCCCCCCC/C=C\C/C=C\CCCCC)N(CCCCCCCCC)CCCN(C)C [Compound 1] | 5.64 | 54 ± 8 | 226 ± 20 |  |  | 
CCCCC/C=C\C/C=C\CCCCCCCCC(CCCCCCCC/C=C\C/C=C\CCCCC)OC(=O)CCCN(C)C [MC3, reference compound] |  | 603 ± 150 | 2876 ± 622 | 198 ± 126 | 757 ± 528 | 70-90 nm
CCCCCCCC(=O)N(CCCN1CCCC1)C(CCCCCCCCC(=O)OCC(CCCC)CCCCCC)CCCCCCCCC(=O)OCC(CCCC)CCCCCC (centres unmarked) [Compound 14] | 6.33 | 2851 ± 438 | 15445 ± 3693 |  |  | 
CCCCC/C=C\C/C=C\CCCCCCCCC(CCCCCCCC/C=C\C/C=C\CCCCC)N(CCCN(C)C)C(=O)CCCCCCCC [Compound 5] | 6.27 | 603 ± 167 | 3640 ± 601 |  |  | 
CCCCC/C=C\C/C=C\CCCCCCCCC(CCCCCCCC/C=C\C/C=C\CCCCC)N(CC)CCCN(C)C [C, reference compound] | 6.36 | 24 ± 4 | 77 ± 19 |  |  | 
CCCCCCCCC(=O)N(CCCN(C)C)C(CCCCCCCCC(=O)OC(CCCCCC)CCCCCC)CCCCCCCCC(=O)OC(CCCCCC)CCCCCC [Compound 11] | 6.13 | 2273 ± 294 | 16502 ± 4301 |  |  | 
CCCCCCCCC(=O)N(CCCN(C)C)C(CCCCCCCCC(=O)OCC(CCCC)CCCCCC)CCCCCCCCC(=O)OCC(CCCC)CCCCCC (centres unmarked) [Compound 9] | 6.27 | 2381 ± 1162 | 17157 ± 2470 |  |  | 
